Test results: US8377967B2, “Piperidine derivative” (Nippon Zoki Pharmaceutical Co., Ltd., priority 2008, dated 2013)

What was measured:
[1] = tested on: histamine-induced vascular hyperpermeability reaction; assay: Rat histamine-induced vascular hyperpermeability reaction (in vivo antihistamine action); conditions: SD male rat, oral administration 1 hour before intracutaneous histamine, leaked Evans Blue pigment
Procedure: An SD male rat (SPF) of 180 g in weight was previously fed for one week or more by allowing the rat to take a solid feed and tap water ad libitum, under the environment setting of a temperature of 22° C., humidity of 55% and an artificial illumination of 12 hours a day (light phase 8 am to 8 pm), and the rat was fasted overnight to be used for the experiment. Histamine•dihydrochloride (hereinafter referred to as histamine) and Evans Blue were used by dissolving each in physiological saline upon use. A substance to be tested was dissolved in water for injection or suspended in 0.5% carboxymethyl cellulose sodium, and the rat was orally administered with the solution or suspension (dose volume: 5 mL/kg body weight). After 1 hour from the administration, the physiological saline and the histamine solution were each intracutaneously injected to two locations (20 μg/0.05 ml/location) each on a back part of the rat of which hair was sheared with an electric clipper while anesthetizing with an ether. A 0.5% Evans Blue-containing physiological saline was injected intravenously to the tail of the rat (1 mL/200 g body weight) immediately before the intracutaneous injection of the histamine.
After 30 minutes, the animal was decapitated, and allowed to bleed lethally, and the skin was removed to measure an amount of leaked pigment in the blue-stained portion. The measurement of the amount of leaked pigment was carried out as follows. Skins of the pigment leaking site were cut out at two locations, 1 mL of a 2 mol/L aqueous potassium hydroxide solution was added thereto in a test tube, and the test tube was allowed to stand overnight at 37° C. to dissolve. Thereafter, 6 mL of a 1:3 mixed solution of 0.67 mol/L phosphoric acid and acetone was added to the solution, and the mixture was vigorously shaken for 10 minutes. Thereafter, the mixture was filtered, and the absorbance of the filtrate at 620 nm was measured. The absorbance obtained from the two locations of the sites injected with physiological saline, as blank value, was used for a compensation. The amount of leaked pigment was calculated from the calibration curve of Evans Blue at 620 nm.

cerebral H1 receptor = biological target: T1, cerebral H1 receptor (Mus musculus, UniProt P70174); assay: Murine cerebral H1 receptor occupying content (ex vivo); assay type: in vivo; conditions: for ED50: ICR male mouse, oral administration, brain excised after 1 hour, 3H-pyrilamine binding in brain homogenate, larger = lower brain transfer, read-out: ID50 (the source's name); for ID50 (mg/kg)/ ED50 (mg/kg): ID50 of cerebral receptor binding test (Table 20) divided by ED50 of vascular hyperpermeability test (Table 19)
T1 construct: the entire brain, except for cerebellum and medulla oblongatae, was rapidly excised; from tissue; host or cells: brain homogenate (without cerebellum and medulla oblongata) of orally dosed ICR male mice
Procedure: A 6-week-old ICR male mouse was previously fed for one week or more by allowing the mouse to take a solid feed and tap water ad libitum, under the environment setting of a temperature of 22° C., humidity of 55% and an artificial illumination of 12 hours a day, and the mouse was fasted overnight to be used for the experiment. A substance to be tested was dissolved with water for injection or suspended in 0.5% carboxymethyl cellulose solution, and the solution or suspension was orally administered to the mouse (dose volume: 0.1 mL/10 g body weight). After 1 hour from the oral administration, the mouse was decapitated, and the entire brain, except for cerebellum and medulla oblongatae, was rapidly excised. The excised brain tissue was homogenized with Polytron (manufactured by Kinematica) in an ice-cooled 50 mmol/L phosphate buffered saline (pH 7.4, 100 mg/1.9 mL).
To a test tube for reaction (TPX-Tube) were added 180 μL of the brain homogenate, and 10 μL of ^3H-pyrilamine solution (final concentration: 2 nmol/L) and 10 μL of a non-labeled pyrilamine solution (final concentration: 200 μmol/L) or a 50 mmol/L phosphate buffered saline, and the mixture was incubated at room temperature for 45 minutes, and 2.0 mL of an ice-cooled, 50 mmol/L phosphate buffered saline was then added thereto to stop the reaction. The reaction mixture was filtered with a GF/B filter (manufactured by […]), and the […] was placed in a vial and dried overnight at 60 degrees. After drying, 10 mL of a scintillator (AL-1, toluene-based, manufactured by DOJINDO LABORATORIES) was added to the product, and the disintegration per minute (dpm) was measured with a liquid scintillation counter (manufactured by Packard, U.S.A., TRI-CARB 2700TR) (5 minutes/vial).

T1 sequence (P70174 whole entry): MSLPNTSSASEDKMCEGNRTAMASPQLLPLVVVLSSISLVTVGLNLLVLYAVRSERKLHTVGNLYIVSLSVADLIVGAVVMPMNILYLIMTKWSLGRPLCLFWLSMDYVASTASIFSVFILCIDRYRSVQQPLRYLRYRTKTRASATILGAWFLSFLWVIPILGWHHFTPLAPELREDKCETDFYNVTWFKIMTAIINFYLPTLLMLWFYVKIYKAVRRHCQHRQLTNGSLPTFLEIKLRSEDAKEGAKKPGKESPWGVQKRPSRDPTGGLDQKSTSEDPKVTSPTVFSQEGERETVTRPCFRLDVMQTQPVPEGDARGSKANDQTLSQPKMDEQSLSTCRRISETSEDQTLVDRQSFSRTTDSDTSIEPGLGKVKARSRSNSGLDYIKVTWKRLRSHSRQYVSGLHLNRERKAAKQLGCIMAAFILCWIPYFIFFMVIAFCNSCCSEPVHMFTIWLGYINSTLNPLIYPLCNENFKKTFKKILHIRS

SMILES | ED50 [1] [mg/kg] | ED50 (cerebral H1 receptor) [mg/kg] | ID50 (mg/kg)/ ED50 (mg/kg) (cerebral H1 receptor)
O=C(O)CCc1cc2c(s1)C=Cc1ccccc1C2=C1CCNCC1 [Compound 209, 3-(4-Piperidin-4-ylidene-4H-1-thiabenzo[f]azulen-2-yl)propionic acid] | 0.42 | > 200 | >476.2
CCOC(=O)Cc1ccc2c(c1)C(=C1CCNCC1)c1sccc1CO2.Cl [Compound 113, Ethyl (4-piperidin-4-ylidene-4,10-dihydro-9-oxa-3-thiabenzo[f]azulen-6-yl)acetate hydrochloride] | 0.072 | 98.7 | 1370.8
CC(=O)CCCN1CCC(=C2c3cc(CC(=O)O)ccc3OCc3ccsc32)CC1 [Compound 170, {4-[1-(4-Oxopentyl)piperidin-4-ylidene]-4,10-dihydro-9-oxa-3-thiabenzo[f]azulen-6-yl}acetic acid] | 0.614 | 70.3 | 114.5
COC(=O)CCCc1ccc2c(c1)C(=C1CCNCC1)c1sccc1CO2.Cl [Compound 135, Methyl 4-(4-piperidin-4-ylidene-4,10-dihydro-9-oxa-3-thiabenzo[f]azulen-6-yl)butyrate hydrochloride] | 2.33 | > 200 | >85.8
CSCCCN1CCC(=C2c3cc(CC(=O)O)ccc3OCc3ccsc32)CC1 [Compound 199, {4-[1-(3-Methylsulfanylpropyl)piperidin-4-ylidene]-4,10-dihydro-9-oxa-3-thiabenzo[f]azulen-6-yl}acetic acid] | ~0.01 | 4.5 | 450.0
CN1CCC(=C2c3cc(C(C)(C)C(=O)O)ccc3OCc3ccsc32)CC1 [Compound 68, 2-Methyl-2-[4-(1-Methylpiperidin-4-ylidene)-4,10-dihydro-9-oxa-3-thiabenzo[f]azulen-6-yl]propionic acid] | 0.13 | 14.6 | 112.3
O=C(O)Cc1ccc2c(c1)C(=C1CCN(CCCO)CC1)c1sccc1CO2 [Compound 139, {4-[1-(3-Hydroxypropyl)piperidin-4-ylidene]-4,10-dihydro-9-oxa-3-thiabenzo[f]azulen-6-yl}acetic acid] | 2.24 | > 200 | >89.3
CC(C)(C(=O)O)c1cc2c(s1)CCc1ccccc1C2=C1CCNCC1.Cl [Compound 153, 2-Methyl-2-(4-piperidin-4-ylidene-9,10-dihydro-4H-1-thiabenzo[f]azulen-2-yl)propionic acid hydrochloride] | 2.61 | > 200 | >76.6
CN1CCC(=C2c3cc(C=CC(=O)O)ccc3OCc3ccsc32)CC1 [Compound 35, 3-[4-(1-Methylpiperidin-4-ylidene)-4,10-dihydro-9-oxa-3-thiabenzo[f]azulen-6-yl]acrylic acid] | 0.28 | 28.4 | 101.4
CC(OC(=O)Cc1ccc2c(c1)C(=C1CCNCC1)c1sccc1CO2)OC(=O)OC1CCCCC1.Cl (stereo not drawn) [Compound 180, 1-Cyclohexyloxycarbonyloxyethyl (4-piperidin-4-ylidene-4,10-dihydro-9-oxa-3-thiabenzo[f]azulen-6-yl)acetate hydrochloride] | 1.55 | > 200 | >129.0
CCN1CCC(=C2c3cc(CC(=O)O)ccc3OCc3ccsc32)CC1 [Compound 128, [4-(1-Ethylpiperidin-4-ylidene)-4,10-dihydro-9-oxa-3-thiabenzo[f]azulen-6-yl]acetic acid] | ~0.1 | 7.45 | 74.5
COC(=O)Cc1ccc2c(c1)C(=C1CCN(CC(C)=O)CC1)c1sccc1CO2.Cl [Compound 167, Methyl {4-[1-(2-oxopropyl)piperidin-4-ylidene]-4,10-dihydro-9-oxa-3-thiabenzo[f]azulen-6-yl}acetate hydrochloride] | 0.194 | 35.1 | 180.9
CCOC(=O)C(C)(C)c1cc2c(s1)CCc1ccccc1C2=C1CCNCC1.Cl [Compound 152, Ethyl 2-methyl-2-(4-piperidin-4-ylidene-9,10-dihydro-4H-1-thiabenzo[f]azulen-2-yl)propionate hydrochloride] | 1.49 | 199 | 133.8
CC(C)N1CCC(=C2c3cc(CC(=O)O)ccc3OCc3ccsc32)CC1 [Compound 132, [4-(1-Isopropylpiperidin-4-ylidene)-4,10-dihydro-9-oxa-3-thiabenzo[f]azulen-6-yl]acetic acid] | 0.17 | 37.5 | 220.6
CN1CCC(=C2c3cc(CC(=O)O)ccc3OCc3ccsc32)CC1.Cl [Compound 54, [4-(1-Methylpiperidin-4-ylidene)-4,10-dihydro-9-oxa-3-thiabenzo[f]azulen-6-yl]acetic acid hydrochloride] | 0.027 | 9.3 | 344.4
CN1CCC(=C2c3cc(SC(C)(C)C(=O)O)ccc3OCc3ccsc32)CC1.Cl [Compound 190, 2-Methyl-2-[4-(1-methylpiperidin-4-ylidene)-4,10-dihydro-9-oxa-3-thiabenzo[f]azulen-6-ylsulfanyl]propionic acid hydrochloride] | 0.419 | 73.2 | 174.7
CN1CCC(=C2c3cc(C(=O)O)ccc3OCc3ccsc32)CC1 [Compound 26, [4-(1-Methylpiperidin-4-ylidene)-4,10-dihydro-9-oxa-3-thiabenzo[f]azulen-6-yl]carboxylic acid] | 0.059 | 4.8 | 81.4
CC(=O)CCN1CCC(=C2c3cc(CC(=O)O)ccc3OCc3ccsc32)CC1 [Compound 192, {4-[1-(3-Oxobutyl)piperidin-4-ylidene]-4,10-dihydro-9-oxa-3-thiabenzo[f]azulen-6-yl}acetic acid] | 0.312 | 63.8 | 204.5
CN1CCC(=C2c3ccccc3CC(=O)c3sc(C=CC(=O)O)cc32)CC1 [Compound 48, 3-[4-(1-Methylpiperidin-4-ylidene)-10-oxo-9,10-dihydro-4H-1-thiabenzo[f]azulen-2-yl]acrylic acid] | 0.68 | 95.5 | 140.4
CCCOC(=O)Cc1ccc2c(c1)C(=C1CCNCC1)c1sccc1CO2.Cl [Compound 137, Propyl (4-piperidin-4-ylidene-4,10-dihydro-9-oxa-3-thiabenzo[f]azulen-6-yl)acetate hydrochloride] | 0.24 | > 200 | >833.3
CN1CCC(=C2c3ccccc3CCc3sc(C(=O)O)cc32)CC1.Cl [Compound 4, [4-(1-Methylpiperidin-4-ylidene)-9,10-dihydro-4H-1-thiabenzo[f]azulen-2-yl]carboxylic acid hydrochloride] | 0.69 | 43.1 | 62.5
CN1CCC(=C2c3cc(CC(=O)O)ccc3OCc3sccc32)CC1 [Compound 117, [4-(1-Methylpiperidin-4-ylidene)-4,10-dihydro-9-oxa-1-thiabenzo[f]azulen-6-yl]acetic acid] | 0.027 | 4.2 | 155.6
